Experiments:
[1] = target: T1, HA-b1AR (Homo sapiens, UniProt P08588); assay: Immunofluorescence with HA antibody, stably transfected HEK293 cells; format: cell-based; conditions: 100 µM, 1 hour
T1 construct: expressed in transfected cells

[2] = target: ERβ (Homo sapiens, UniProt Q92731); assay: Immunostaining of endogenous receptors in MCF-7 cells; conditions: MCF-7, 1 hour
[3] = system: ERs (ERa and ERb); assay: Fluorescence polarization competitive binding with E2-FITC in cytosolic fractions from MCF-7 cells; parameters: species or system human
Procedure: ER binding was measured using cytosolic fractions prepared from MCF-7 cells by fluorescence polarization. MCF-7 (10^6 cells) were detached in EDTA, cell homogenates were prepared using a Dounce homogenizer and subcellular fractions were isolated by differential centrifugation as previously described (Filardo et al, 2002). The protein concentration of each fraction was determined by bichinchoninic acid (BCA) assay (Pierce ™ BCA protein assay kit, Thermo Fisher). For saturation binding assay of the probe, different concentrations of cytosolic fraction were diluted in assay buffer (10 mM Tris-HCl, pH 7.4; 50 mM KCl, 10% glycerol, 0.1 mM dithiothreitol (DTT), 1 ug/mL BGG, 10 nM protease inhibitor cocktail (Roche) to a final volume of 200 uL containing 10 nM Ez-FITC. The mixture was incubated at ambient temperature for 1 hour and interaction of the probe with cytosolic protein was determined by fluorescence polarization (FP). For competitive binding assay, an aliquot of cytosolic fraction and E2-FITC (10 nM final concentration) was mixed and incubated at 4° C. for 1 hour. Then different concentrations of drugs and controls were added to the mixture. The mixture was incubated for an additional hour and then subjected to FP. All samples were measured in triplicate. Negative controls (only cytosolic fraction or only E2-FITC) and positive control (E2-FITC and cytosolic fraction at 100% binding without treatment) were included. Relative binding affinities were expressed as the percentage of FP recorded from treated wells compared to the positive control. FP values in millipolarization units (mP) were measured at ex/em wavelength of 485 nm/530 nm respectively using the Spectra Max plus 384 Microplate Spectrophotometer (Molecular Devices, Sunnyvale, CA) in 96-well, black, flat-bottom microplates (Greiner Bio-One North America, Inc., Monroe, NC). Kd values of the probe were determined by nonlinear regression fitting of the saturation curves, while IC50 values of treatment were determined by nonlinear regression fitting of the competition curves.
In contrast to GPER, ERa and ERb are intracellular receptors that are concentrated in the cytoplasm and in the nucleus. […] A saturation analysis was performed using 10 nM E2-FITC and increasing concentrations of cytosolic protein (FIG. 25D).

[4] = target: GPER (Homo sapiens, UniProt Q99527); assay: Immunostaining of surface and intracellular GPER in SKBR3 cells; conditions: SKBR3, 100 uM, 1 hour
GPER, sequence (Q99527 whole entry): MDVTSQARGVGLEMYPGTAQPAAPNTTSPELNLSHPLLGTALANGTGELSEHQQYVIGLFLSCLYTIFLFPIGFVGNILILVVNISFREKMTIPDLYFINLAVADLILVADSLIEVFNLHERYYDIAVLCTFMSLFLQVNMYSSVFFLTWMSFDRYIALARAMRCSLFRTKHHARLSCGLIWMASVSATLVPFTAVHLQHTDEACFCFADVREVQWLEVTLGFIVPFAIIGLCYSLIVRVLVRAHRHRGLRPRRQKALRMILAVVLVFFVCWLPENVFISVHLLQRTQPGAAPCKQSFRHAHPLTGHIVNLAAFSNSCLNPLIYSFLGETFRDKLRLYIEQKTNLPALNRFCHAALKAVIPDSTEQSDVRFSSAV

[5] = target: T2, HiBiT-ERα (Homo sapiens, UniProt P03372); assay: Nano-BiT binary luminescence complementation, transfected HEK-293 cells, total receptor; format: cell-based
T2 sequence (P03372 1-595): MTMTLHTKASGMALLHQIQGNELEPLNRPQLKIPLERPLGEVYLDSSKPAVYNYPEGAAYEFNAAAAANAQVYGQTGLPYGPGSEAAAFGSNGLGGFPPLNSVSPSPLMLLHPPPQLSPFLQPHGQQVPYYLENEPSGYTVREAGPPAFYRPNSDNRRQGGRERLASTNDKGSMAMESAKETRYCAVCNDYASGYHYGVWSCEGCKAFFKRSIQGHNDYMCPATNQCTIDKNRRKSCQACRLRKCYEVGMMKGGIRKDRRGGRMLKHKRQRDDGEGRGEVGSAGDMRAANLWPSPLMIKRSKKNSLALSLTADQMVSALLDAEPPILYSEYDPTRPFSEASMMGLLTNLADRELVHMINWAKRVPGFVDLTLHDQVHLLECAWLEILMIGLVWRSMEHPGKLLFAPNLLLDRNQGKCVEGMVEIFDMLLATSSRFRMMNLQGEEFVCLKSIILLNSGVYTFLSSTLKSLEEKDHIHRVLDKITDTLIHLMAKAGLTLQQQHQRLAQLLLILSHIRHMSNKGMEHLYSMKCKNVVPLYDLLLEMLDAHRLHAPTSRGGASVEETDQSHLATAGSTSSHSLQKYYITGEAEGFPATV
Procedure: FIG. 26. […] HEK-293 cells (ERα^-, GPER^-) were transiently transfected with 50 ng HiBiT-GPER or HiBiT-ER plus pcDNA3.1(+) zeo carrier plasmid. […] Results shown represent the mean ± S.E. of three independent experiments.
FIG. 28. […] Total receptor was then measured by binary luminescence complementation in detergent-permeabilized cells. […] Total receptor was then quantified by binary luminescence complementation. Representative luminescence data and mean values and SDs derived from three independent experiments are shown.
Transient transfections and binary Nano-Bit ™ luminescence assays. Total HiBiT-tagged GPER or ER estrogen receptors were detected in detergent-permeabilized cells by binary luminescence complementation with recombinant LgBit and substrate using the Nano-Glo HiBiT Extracellular Detection system kit (Promega Corporation, Madison, Wl). In brief, HEK293 cells (0.75 × 10^6) were seeded in 35 mm tissue culture dishes and 24 hours later were transiently transfected with 50 ng of HiBiT-GPER or HiBiT-ERa and 950 ng of pcDNA3.1(+) zeo carrier plasmid using Lipofectamine 2000 (Invitrogen, Carlsbad, CA). The next day transfected cells were harvested by trypsinization and seeded at a density of 10^4 cells/well in 96-well poly-L-lysine-coated Greiner white-bottomed microplates. On the following day, cell culture media was aspirated and replaced with 100 µL of serum-free PRF-DF12 containing E2-PROTAC, partial-PROTAC, or vehicle at various concentrations and for indicated time intervals at 37° C. […] Following treatment, total HiBiT-tagged receptor was measured in cells which were permeabilized in 0.05% Triton X-100 using HiBiT complementation reagent consisting of LgBiT protein and Nano-Gio® HiBiT substrate. Luminescence was measured using the Infinite 200 PRO multimode microplate reader from Tecan (Raleigh, NC) and reported as Relative Luminescent Units (RLU). All samples were measured in triplicate and expressed as the mean value plus or minus standard deviation.

ERβ, sequence (Q92731 whole entry): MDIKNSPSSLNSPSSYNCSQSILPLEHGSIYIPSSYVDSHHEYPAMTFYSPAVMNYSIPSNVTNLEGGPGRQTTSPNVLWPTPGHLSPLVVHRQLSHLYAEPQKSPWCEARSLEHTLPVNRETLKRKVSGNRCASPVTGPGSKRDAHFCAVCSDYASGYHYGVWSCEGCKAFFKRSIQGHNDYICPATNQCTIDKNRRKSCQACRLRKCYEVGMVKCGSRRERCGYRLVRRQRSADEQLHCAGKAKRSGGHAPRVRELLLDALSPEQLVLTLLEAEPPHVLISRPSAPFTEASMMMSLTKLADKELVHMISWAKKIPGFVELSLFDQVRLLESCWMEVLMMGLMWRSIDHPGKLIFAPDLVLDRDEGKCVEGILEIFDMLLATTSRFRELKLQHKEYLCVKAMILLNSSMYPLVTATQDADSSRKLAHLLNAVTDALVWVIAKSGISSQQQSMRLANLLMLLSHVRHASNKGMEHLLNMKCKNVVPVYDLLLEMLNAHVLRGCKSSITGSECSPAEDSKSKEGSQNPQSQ
T1 sequence (P08588 whole entry): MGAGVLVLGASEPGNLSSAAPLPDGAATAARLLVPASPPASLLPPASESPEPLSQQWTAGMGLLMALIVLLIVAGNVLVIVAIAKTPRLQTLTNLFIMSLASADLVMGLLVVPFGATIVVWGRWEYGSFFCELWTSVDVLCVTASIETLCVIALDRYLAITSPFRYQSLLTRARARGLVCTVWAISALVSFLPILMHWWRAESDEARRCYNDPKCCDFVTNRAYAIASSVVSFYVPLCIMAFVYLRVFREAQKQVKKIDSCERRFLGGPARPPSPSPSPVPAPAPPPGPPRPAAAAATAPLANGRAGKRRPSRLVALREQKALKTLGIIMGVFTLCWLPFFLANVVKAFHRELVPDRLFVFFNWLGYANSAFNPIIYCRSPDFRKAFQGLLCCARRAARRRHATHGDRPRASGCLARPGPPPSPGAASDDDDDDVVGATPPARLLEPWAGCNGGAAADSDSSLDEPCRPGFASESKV

`Cc1ncsc1-c1ccc(CNC(=O)C2CC(O)CN2C(=O)C(NC(=O)COCCOCCOCCOCC(=O)OC2CCC3C4CCc5cc(O)ccc5C4CCC23C)C(C)(C)C)cc1` (centres unmarked) [UI-EP001] was tested, and the “off-target degradation of HA-b1AR” value [1] was “without detectable off-target degradation”, the “nuclear ERβ expression” value [2] was “Clear site-specific reduction” and the “RBA%, ERs” value ([3]; IC50 of 17β-E2 divided by IC50 of test compound) was 32%. For the same compound, the IC50 ([3]; MCF-7 cytosolic fraction, 10 nM E2-FITC, mean ± SD of triplicates) was 17.2 ± 8.2 nM, the Kd ([3]; MCF-7 cytosolic fractions, E2-FITC, read-out: binding dissociation constant (Kd), ER) was 17.2 nM and the “plasma membrane and total GPER” value [4] was “reduced plasma membrane and total GPER”. For the same compound, the “reduction in expression level of recombinant ER” value ([5]; 100 µM, as early as 1 h) was 50% and the “change of HiBiT-ERα” value ([5]; increasing doses, 1 hour, partial PROTAC 100 µM) was “dose-dependent decrease”.

From patent publication US20230312639A1, “GPER PROTEOLYTIC TARGETING CHIMERAS” (University of Iowa Research Foundation, priority 2020, published 2023)
